Laboratory results: PubChem BioAssay (NCI)
Values joined by “and” are separate entries in the source; they are usually repeats but may differ in a detail not shown here. Equal values may be shown once.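 How tested: cells in 96-well plates exposed to compound for 48 hours at five concentrations. The concentration for 50% growth inhibition is given as GI50. TGI is the concentration that stops growth completely.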

How the values were obtained:
Test in all cases: inhibition of tumour cell growth, NCI panel, 48 h
SN12C renal = system: SN12C renal
NCI-H522 lung = system: NCI-H522 lung
ACHN renal = system: ACHN renal
LOX IMVI melanoma = system: LOX IMVI melanoma
SK-OV-3 ovarian = system: SK-OV-3 ovarian
SR leukemia = system: SR leukemia
SF-268 CNS = system: SF-268 CNS
A549 NSCLC = system: A549 NSCLC
MCF7 breast = system: MCF7 breast
MDA-MB-435 = system: MDA-MB-435

SMILES	TGI (SN12C renal) [µM]	TGI (NCI-H522 lung)	TGI (ACHN renal) [µM]	TGI (LOX IMVI melanoma) [µM]	TGI (SK-OV-3 ovarian) [µM]	TGI (SR leukemia) [µM]	TGI (SF-268 CNS) [µM]	TGI (A549 NSCLC) [µM]	GI50 (SN12C renal) [µM]	GI50 (NCI-H522 lung) [µM]	GI50 (MCF7 breast) [µM]	TGI (MCF7 breast) [µM]	GI50 (MDA-MB-435) [µM]	TGI (MDA-MB-435) [µM]	GI50 (ACHN renal) [µM]	GI50 (LOX IMVI melanoma) [µM]	GI50 (SK-OV-3 ovarian) [µM]	GI50 (SF-268 CNS) [µM]	GI50 (A549 NSCLC) [µM]	GI50 (SR leukemia) [µM]
O=C1[C@@H]2C3SC(c4ccccc43)[C@@H]2C(=O)N1c1ccccc1	> 100	> 100 µM	> 100	> 100	> 100	> 100	> 100	> 100												
O=C(CC(=O)Nc1ccccc1O)Nc1ccccc1O	33.8	24.8 µM	22.4		> 100		75.8	95.1												
Nc1ccc2c(c1)CC1c3ccccc3C(C2)c2ccccc21	> 100	> 100 µM	> 100	> 100	> 100		> 100	> 100												
C[C@]12CCC3c4ccc(O)cc4CCC3C1Cc1ccc(O)cc12 (some centres not stated)	25.8	12.8 µM	22.3	21.3	36.4		44.2	38.4	11.8	3.5	4.83	17.8	2.44	11.1	10.4	6.53	14.3	11.4	13	
Cc1ccccc1NC(=O)C1C(=O)N(c2ccccc2C)C(=O)/C1=N\N (configuration not stated)	> 100	> 100 µM	> 100	> 100	> 100	> 100	> 100	> 100												
Nc1nc(N)c(N=O)c(Nc2ccc(I)cc2)n1	49.2	29.9 µM	> 100	51.6	39.2	76.1	74.1	> 100												
COc1cc(C(=O)C/C(CCC(=O)Nc2ccc(Cl)cc2Cl)=N/NC(=O)C(N)=O)ccc1O	> 100	> 100 µM	> 100		> 100		> 100	> 100												
CO[C@H]1C[C@@H]2CC[C@@H](C)[C@@](O)(O2)C(=O)C(=O)N2CCCC[C@H]2C(=O)O[C@H]([C@H](C)C[C@@H]2CC[C@@H](OP(C)(C)=O)[C@H](OC)C2)CC(=O)[C@H](C)/C=C(\C)[C@@H](O)[C@@H](OC)C(=O)[C@H](C)C[C@H](C)/C=C/C=C/C=C/1C	25.8	19.9 µM	21.5	21.7	21.7		23.6	20.7	11		0.402	21	1.41	23.9	0.411	< 0.01	0.557	10.9	< 0.01	
COc1cc2c(c(OC)c1OC)-c1ccc(SC)c(=O)cc1[C@@H](NCc1cccc(C#N)c1)CC2	66.1	0.0377 µM and < 0.0075 µM	> 75	16.6		12.2		> 75	< 0.0075	< 0.0075					0.0134	< 0.0075	< 0.0075	< 0.0075	< 0.0075	
CC(=O)Nc1ccccc1-c1cnc2ccccc2n1	> 100	> 100 µM	> 100	> 100	> 100	> 100	> 100	> 100												
Cc1ccc(NC(=O)CC/C(CC(=O)c2ccc(F)cc2)=N\NC(=O)C(=O)NN)cc1C	> 100	> 100 µM	> 100	> 100	> 100		> 100	> 100												
O=C(/C=C/c1ccccc1O)c1cccnc1	> 100	> 100 µM	> 100	> 100	> 100	> 100	> 100	> 100												
O=C(O)C[O][Sb][O]CC(=O)O	> 100	> 100 µM	> 100	> 100		> 100	> 100	> 100	> 100	> 100			> 100	> 100	> 100	> 100		> 100	> 100	> 100
CCOC(=O)C(Cc1ccccc1)NC(=O)OC(C)(C)C (configuration not stated)	> 100		> 100	> 100	> 100		> 100	> 100												
CO/N=C(/COc1c(-c2ccccc2)oc2ccccc2c1=O)c1ccc(OC)cc1	> 100	> 100 µM	> 100	> 100	> 100	53.4		> 100	76.7	53.3			30.7	> 100	> 100	> 100	> 100		> 100	9.1
